“Also recorded” adds a separate entry of the source.
Key:
[1] = tested on: Sprague-Dawley (SD) rats; assay: c-peptide levels in non-fasted Sprague-Dawley rats after subcutaneous injection; assay type: in vivo; conditions: 175 nmol-200 nmol s.c.; for duration of c-peptide level compared to rats injected with Degludec: over 120 hours
Procedure: (§1) Male Sprague-Dawley (SD) rats at the age of 8-10 weeks old were administered a dose of 175 nmol-200 nmol insulin analogs 1, 2, 3, 4, APi3545, APi3546, APi3547, and APi3549 through subcutaneous injection. Insulin Degludec was used as a positive control. A vehicle control consisted of glycerol (19.6 mg), metacresol (1.72 mg), phenol (1.50 mg), zinc acetate ([…]), and WFI to 1 mL.

[2] = molecular target: T1, IGF-1R (Homo sapiens, UniProt P08069); assay: IGF-1R activation in IGF-1R (Luc) HEK293 reporter cells; assay type: cell-based; conditions: up to 4 μg/mL (1.6 μM) concentration
T1 construct: expressed in transfected cells; host or cells: IGF-1R (Luc) HEK293 reporter cells
Source text: Insulin-like growth factor (IGF-1R) is a tyrosine kinase type receptor that regulates cell growth and proliferation and can be activated by IGF-1, IGF-2, and insulin. […]

[3] = Body weight of non-fasted Sprague-Dawley rats after subcutaneous injection; assay type: in vivo; conditions: SD rats, over 120 hours, FIG. 13 and FIG. 16
Procedure: as §1

[4] = tested on: Sprague-Dawley (SD) rats; assay: Glucose levels in non-fasted Sprague-Dawley rats after subcutaneous injection; assay type: in vivo; conditions: for duration of decrease in glucose levels compared to rats injected with Degludec: over 120 hours; for glucose area under the curve (AUC) values: FIG. 9 (0-96 hour) and FIG. 15 (0-72 hour)
Procedure: as §1

[5] = tested on: ICR mice; conditions: reference standard as labelled; cited from earlier work
[6] = tested on: ICR mice; assay: Biopotency in ICR mice against insulin reference standard, chapter <1211> of Chinese Pharmacopeia (blood glucose 40 min after injection); assay type: in vivo; conditions: low and high dosing solutions 0.05 and 0.1 IU/mL, blood 40 minutes after administration, FIG. 7
Procedure: The biopotency of the eight insulin analogs was determined by comparison with the insulin reference standard following chapter <1211> of Chinese Pharmacopeia. In particular, the insulin analogs and insulin reference standard were prepared with either diluent 1 or diluent 2. Diluent 1 comprises 0.9% sodium chloride at a pH of 2.5 (adjusted with HCl) and 0.2% phenol. Diluent 2 comprises 0.9% sodium chloride at a pH of 2.5 (adjusted with HCl). The insulin reference standard (27.2 IU/mg) and the insulin analogs (calculated as 25 IU/mg) were prepared with diluent 1. In addition, low- and high-dosing solutions (0.05 IU/mL and 0.1 IU/mL, respectively) of insulin reference standard and test analogs were prepared with diluent 2. Following chapter <1211> of Chinese Pharmacopeia, ICR mice (25-28 g, 6 animals per group) were injected with 0.2-0.3 mL of low and high dosing solution of the eight insulin analogs and insulin standard. Low and high doses of insulin standard and insulin analogs were administered to the mice following parallel design/protocol. […] The glucose concentration of each blood sample was determined by the glucose oxidase-peroxidase method (Roche blood glucose test strips). […] FIG. 6 summarizes the relative biopotency of the insulin analogs by comparing the calculated biopotency and measured biopotency.

[7] = Body weight of db/db mice measured daily for 3 days after single subcutaneous dose; assay type: in vivo; conditions: Day 1-3, 1.5 IU/mg Degludec, all dose levels of Analog #1, FIGS. 3A-3B
Procedure: (§2) Accordingly, the ability of insulin analog 1 (FIG. 1A) to control the glucose profile in a db/db type II diabetes model was tested. As a control, wild type m/m mouse strain was included in the study. Mice were male, between ages 6-8 weeks, and the total group size was 8. The insulin analogs were delivered as a subcutaneous single dose. The dose volume was 5 mL/Kg ([…] per 25 g mouse). Mice were injected at the following dose levels: Degludec 1.5 IU/kg (model) and insulin analog #1 (FIG. 1A) at 0.04 mg/kg, 0.12 mg/kg, or 0.36 mg/kg. All insulin compounds (Degludec and analog #1) were diluted with 0.9% sodium chloride (vehicle, normal saline). Vehicle controls were comprised of 0.9% sodium chloride.
(§3) Blood collection for glucose plasma concentration measurements occurred at Oh (0-60 min before dosing), 0.5 h, 1 h, 2 h, 4 h, 6 h, 8 h, 10 h, 12 h, 18 h, 24 h, 30 h after the single dose. Moreover, the mouse body weight was measured daily for 3 days.

[8] = tested on: db/db mice; assay: Glucose profile after single subcutaneous dose in db/db type II diabetes mouse model; assay type: in vivo
Source text: Murine db/db murine strain is a well-accepted type II diabetes model that recapitulates most aspects of human type II diabetes. In particular, db/db mice carry mutations in the leptin receptor that lead to obesity, decreased insulin receptor sensitivity, and subsequent increased levels of blood glucose, decreased β-cell function, and elevated HBA1c levels. Like human Type II diabetes, the diabetic condition in db/db mice is progressive. Animals have near normal or slightly elevated plasma glucose (PG) and relatively normal β-cell function at 6 weeks of age. Fasting plasma glucose (FPG) levels gradually elevate over several weeks and β-cell function declines such that by about 16 weeks of age FPG is very high (>400 mg/dL) and j-cell function has entirely degenerated. The db/db mouse model may be used in an acute setting but is more typically used in a chronic setting to evaluate a test compound's cumulative action over several weeks of treatment. The variability is reasonably low such that good statistically significant effects are seen with validating compounds with group sizes of about 8 animals.
as §2, with “Mice were injected at the following dose levels: Degludec 1.5 IU/kg (model) and insulin analog #1 (FIG. 1A) at 0.04 mg/kg, 0.12 mg/kg, or 0.36 mg/kg.” left out
as §3

[9] = SD rats, 175 nmol-200 nmol s.c.

T1 sequence (P08069 31-736 limits assumed): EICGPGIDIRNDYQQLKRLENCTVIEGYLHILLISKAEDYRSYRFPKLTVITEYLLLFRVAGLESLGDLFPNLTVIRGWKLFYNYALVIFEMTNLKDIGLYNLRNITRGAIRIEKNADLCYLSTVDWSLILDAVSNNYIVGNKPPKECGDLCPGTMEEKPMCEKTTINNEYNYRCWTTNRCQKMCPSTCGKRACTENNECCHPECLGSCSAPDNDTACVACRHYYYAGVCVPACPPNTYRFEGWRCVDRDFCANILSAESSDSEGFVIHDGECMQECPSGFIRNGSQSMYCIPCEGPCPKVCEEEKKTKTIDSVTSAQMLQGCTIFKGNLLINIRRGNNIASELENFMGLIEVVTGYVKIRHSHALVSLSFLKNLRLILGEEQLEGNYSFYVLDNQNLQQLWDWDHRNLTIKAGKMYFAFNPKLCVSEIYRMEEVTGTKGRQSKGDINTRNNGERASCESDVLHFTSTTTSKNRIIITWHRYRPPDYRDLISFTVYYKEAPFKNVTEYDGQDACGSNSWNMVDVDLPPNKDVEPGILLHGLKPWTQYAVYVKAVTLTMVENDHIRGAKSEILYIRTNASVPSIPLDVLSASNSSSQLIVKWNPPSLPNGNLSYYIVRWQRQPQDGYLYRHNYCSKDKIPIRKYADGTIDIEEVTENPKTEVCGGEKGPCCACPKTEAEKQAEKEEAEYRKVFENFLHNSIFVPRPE
T1 sequence (P08069 741-1367 limits assumed): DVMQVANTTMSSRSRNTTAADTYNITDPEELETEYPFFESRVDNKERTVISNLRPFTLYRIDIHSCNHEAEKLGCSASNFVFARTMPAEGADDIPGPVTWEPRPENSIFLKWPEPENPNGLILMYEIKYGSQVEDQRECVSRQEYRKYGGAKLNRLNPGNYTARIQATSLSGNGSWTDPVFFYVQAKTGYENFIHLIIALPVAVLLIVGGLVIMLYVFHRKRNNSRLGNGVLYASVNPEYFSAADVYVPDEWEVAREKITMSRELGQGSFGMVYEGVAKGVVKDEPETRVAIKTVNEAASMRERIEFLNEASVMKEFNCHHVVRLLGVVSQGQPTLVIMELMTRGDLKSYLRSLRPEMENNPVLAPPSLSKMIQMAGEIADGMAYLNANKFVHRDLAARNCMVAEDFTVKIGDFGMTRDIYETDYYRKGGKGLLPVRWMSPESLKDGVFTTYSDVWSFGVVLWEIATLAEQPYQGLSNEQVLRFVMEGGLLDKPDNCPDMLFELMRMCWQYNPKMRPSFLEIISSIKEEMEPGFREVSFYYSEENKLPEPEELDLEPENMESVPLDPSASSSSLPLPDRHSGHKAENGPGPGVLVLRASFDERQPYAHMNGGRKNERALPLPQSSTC

Question: For “insulin analog 4: A-chain SEQ ID NO: 3 (A14 Gla), B-chain SEQ ID NO: 10 (B16 and B25 Pal, B28 Pip); structure FIG. 1D”, which “duration of c-peptide level compared to rats injected with Degludec” value [1] is on record?
Answer: maintained the level of c-peptide for a longer time

Question: What about the IGF-1R activation ([2]; FIG. 19, listed as 4) of the same substance?
Answer: none of insulin analogs 1, 2, 3, and 4 showed IGF-1R activation; also recorded: lack of IGF-1R activation

Question: What about the “rate of body weight increase compared to rats injected with Degludec” value (from here on “rate of body weight increase”) [3] of the same substance?
Answer: lower rate of body weight increase

Question: What about the “duration of decrease in glucose levels compared to rats injected with Degludec” value (“duration of decrease in glucose levels” below) [4, 9] of the same substance?
Answer: longer lasting decrease in glucose levels

Question: And the “glucose area under the curve (AUC) values” (“glucose area under the curve” below) ([4]; SD rats)?
Answer: follow the order of their specific activities

Question: Which “potency of insulin reference standard” value [5] does the source give for “insulin reference standard: insulin reference standard (27.2 IU/mg) of chapter <1211> of Chinese Pharmacopeia biopotency test” here?
Answer: 27.2 IU/mg

Question: For “insulin analog 3: A-chain SEQ ID NO: 3 (A14 Gla), B-chain SEQ ID NO: 8 (B16 and B25 Pal, B28 Hyp); structure FIG. 1C”, which “duration of c-peptide level compared to rats injected with Degludec” value [1] is on record?
Answer: maintained the level of c-peptide for a longer time

Question: What about the IGF-1R activation ([2]; FIG. 19, listed as 3) of the same substance?
Answer: none of insulin analogs 1, 2, 3, and 4 showed IGF-1R activation; also recorded: lack of IGF-1R activation

Question: What about the “magnitude of glucose lowering effect among analogs tested” value [4, 9] of the same substance?
Answer: most profound glucose lowering effect

Question: And the “duration of decrease in glucose levels” value [4, 9]?
Answer: longer lasting decrease in glucose levels

Question: What about the “glucose area under the curve” value ([4]; SD rats) of the same substance?
Answer: follow the order of their specific activities

Question: What does the source list for “APi3545: A-chain SEQ ID NO: 11 (A14 Aad), B-chain SEQ ID NO: 16 (B16 His(5-I), B25 Ala(4-thiazoyl)); structure FIG. 1H”?
Answer: time undetectable c-peptide level was maintained [1]: up to 72 hours; duration of c-peptide level compared to rats injected with Degludec [1]: maintained the level of c-peptide for a longer time; glucose lowering effect / biopotency measured in ICR mice [6]: most active; duration of decrease in glucose levels compared to rats injected with Degludec [4, 9]: longer lasting decrease in glucose levels; duration of action among insulin analogs tested ([4]; structure-activity relationship (Example 5)): most long-acting insulin analog tested

Question: For Degludec [reference compound], which “effect on animal body weight” value [7] is on record?
Answer: no significant effect

Question: Which “effect on animal body weight” value [7] does the source give for “insulin analog 1: A-chain SEQ ID NO: 3 (A14 Gla), B-chain SEQ ID NO: 4 (B16 and B25 His(3-Me)); structure FIG. 1A” here?
Answer: no significant effect

Question: And the “glucose profile compared to db/db vehicle control” value ([8]; 0.12 mg/kg, s.c. single dose, 2, 4, 6 and 8 hr time points, FIG. 2)?
Answer: statistically significantly lower

Question: And the “response (glucose level decrease) versus dose” value ([8]; 0.36 mg/kg, 0.12 mg/kg and 0.04 mg/kg doses)?
Answer: dose proportional

Question: What about the “glucose profile compared to db/db vehicle control” value ([8]; 0.36 mg/kg, entire time course starting from 2 hr time point) of the same substance?
Answer: statistically lower

Question: What about the “glucose profile compared to db/db vehicle control” value ([8]; 0.36 mg/kg, s.c. single dose, 2, 4, 6 and 8 hr time points, FIG. 2) of the same substance?
Answer: statistically significantly lower

Question: What about the “duration of c-peptide level compared to rats injected with Degludec” value [1] of the same substance?
Answer: maintained the level of c-peptide for a longer time

Question: And the IGF-1R activation ([2]; FIG. 19, listed as 1)?
Answer: none of insulin analogs 1, 2, 3, and 4 showed IGF-1R activation; also recorded: lack of IGF-1R activation

Question: What about the “rate of body weight increase” value [3] of the same substance?
Answer: lower rate of body weight increase

Question: What about the “duration of decrease in glucose levels” value [4, 9] of the same substance?
Answer: longer lasting decrease in glucose levels

Question: Which “c-peptide lowering effect among analogs tested” value [1] does the source give for “insulin analog 2: A-chain SEQ ID NO: 3 (A14 Gla), B-chain SEQ ID NO: 6 (B16 and B25 Pal, B28 Pro); structure FIG. 1B” here?
Answer: most profound and longest-lasting c-peptide lowering effect

Question: What about the “duration of c-peptide level compared to rats injected with Degludec” value [1] of the same substance?
Answer: maintained the level of c-peptide for a longer time

Question: And the IGF-1R activation ([2]; FIG. 19, listed as 2)?
Answer: none of insulin analogs 1, 2, 3, and 4 showed IGF-1R activation; also recorded: lack of IGF-1R activation

Question: What about the “glucose lowering effect / biopotency measured in ICR mice” value [6] of the same substance?
Answer: most active

Question: What about the “rate of body weight increase” value [3] of the same substance?
Answer: lower rate of body weight increase

Question: What about the “duration of decrease in glucose levels” value ([4]; SD rats, 175 nmol-200 nmol s.c., listed as 2) of the same substance?
Answer: longer lasting decrease in glucose level

Question: What about the “glucose area under the curve” value ([4]; SD rats) of the same substance?
Answer: follow the order of their specific activities

Question: With “APi3546: A-chain SEQ ID NO: 11 (A14 Aad), B-chain SEQ ID NO: 18 (B16 His(5-I), B25 3-Pal); structure FIG. 1I” as the substance, how does the “duration of c-peptide level compared to rats injected with Degludec” value [1] read?
Answer: maintained the level of c-peptide for a longer time

Question: And the “rate of body weight increase” value [3]?
Answer: lower rate of body weight increase

Question: What about the “duration of decrease in glucose levels” value [4, 9] of the same substance?
Answer: longer lasting decrease in glucose levels
